Laboratory results published in ChEMBL document CHEMBL1201862, “PubChem BioAssay data set” (2004).
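Assay format: 96-well plates, 48-hour exposure. GI50 = concentration required for 50% inhibition of growth.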 Calls of active or inactive are those of the source. Rule as the data show it: active = GI50 up to about 1.1 µM and inactive = higher.

How the values were obtained:
Experiment in all cases: NCI-60 cell line screen, 48 h
[1] = tested on: HOP-92
[2] = tested on: BT-549
[3] = tested on: SF-268
[4] = tested on: 786-0
[5] = tested on: NCI-H226
[6] = tested on: SF-539
[7] = tested on: SNB-19
[8] = tested on: MDA-N
[9] = tested on: OVCAR-5
[10] = tested on: MDA-MB-435
[11] = tested on: CAKI-1
[12] = tested on: NCI-H460
[13] = tested on: NCI-H23
[14] = tested on: TK-10
[15] = tested on: MCF7
[16] = tested on: HCT-15
[17] = tested on: A549
[18] = tested on: A498
[19] = tested on: SK-MEL-5
[20] = tested on: LOX IMVI

Structure (SMILES) | GI50 [1] | GI50 [2] | GI50 [3] | GI50 [4] | GI50 [5] | GI50 [6] | GI50 [7] | GI50 [8] | GI50 [9] | GI50 [10] | GI50 [11] | GI50 [12] | GI50 [13] | GI50 [14] | GI50 [15] | GI50 [16] | GI50 [17] | GI50 [18] | GI50 [19] | GI50 [20]
CC(=N/N=C/c1ccccn1)/C(C)=N/N=C(C)/C(C)=N/N=C(C)/C(C)=N/N=C(C)/C(C)=N\N=C\c1ccccn1 | > 100 µM (inactive) | > 100 µM (inactive) | > 100 µM (inactive) | > 100 µM (inactive) | > 100 µM (inactive) | > 100 µM (inactive) | > 100 µM (inactive) | > 100 µM (inactive) | > 100 µM (inactive) | > 100 µM (inactive) | > 100 µM (inactive) | > 100 µM (inactive) | > 100 µM (inactive) | > 100 µM (inactive) | > 100 µM (inactive) | > 100 µM | > 100 µM (inactive) | > 100 µM (inactive) | > 100 µM (inactive) | > 100 µM (inactive)
Cc1cc(O)c2c(c1)C(=O)C(c1c(C)cc3c(c1O)C(=O)C1OC1C3=O)=CC2=O (stereo not given) | 0.839 µM (active) | 2.4 µM (inactive) | 7.24 µM (inactive) | 1.64 µM (inactive) | 16.1 µM (inactive) | 4.48 µM (inactive) | 21.5 µM (inactive) | 1.27 µM (inactive) | 5.27 µM (inactive) | 2.54 µM (inactive) | 0.796 µM (active) | 7.87 µM (inactive) | 8.97 µM (inactive) | 1.1 µM (active) | 1.84 µM (inactive) | 1.16 µM | 17.7 µM (inactive) | 6.4 µM (inactive) | 6.34 µM (inactive) | 2.02 µM (inactive)
C=C1C(=O)OC2/C=C(\CO)C3OC3C3OC3(C)CC(OC(=O)/C(=C/C)COC(C)=O)C12 (stereo not given) | 2.01 µM (inactive) | 1.77 µM (inactive) | 11.2 µM (inactive) | 2.29 µM (inactive) | 21.6 µM (inactive) | 2.91 µM (inactive) | 15.1 µM (inactive) | 3.58 µM (inactive) | 15.3 µM (inactive) | 2.59 µM (inactive) | 1.95 µM (inactive) | 12.2 µM (inactive) | 6.93 µM (inactive) | 2.94 µM (inactive) | 3.94 µM (inactive) | 2.12 µM | 18.6 µM (inactive) | 13.8 µM (inactive) | 8.13 µM (inactive) | 1.51 µM (inactive)
CCOC(=O)C1CCC(=O)N1C(=O)c1ccccc1Cl (stereo not given) | > 100 µM (inactive) | > 100 µM (inactive) | > 100 µM (inactive) | > 100 µM (inactive) | > 100 µM (inactive) | > 100 µM (inactive) | > 100 µM (inactive) | > 100 µM (inactive) | > 100 µM (inactive) | > 100 µM (inactive) | > 100 µM (inactive) | > 100 µM (inactive) | > 100 µM (inactive) | > 100 µM (inactive) | > 100 µM (inactive) | > 100 µM | > 100 µM (inactive) | > 100 µM (inactive) | > 100 µM (inactive) | > 100 µM (inactive)
Cc1oc2c(c1C)S(=O)(=O)C(C#N)=C(c1ccccc1)N2 | > 100 µM (inactive) | > 100 µM (inactive) | > 100 µM (inactive) | > 100 µM (inactive) | > 100 µM (inactive) | > 100 µM (inactive) | > 100 µM (inactive) | > 100 µM (inactive) | > 100 µM (inactive) | > 100 µM (inactive) | > 100 µM (inactive) | > 100 µM (inactive) | > 100 µM (inactive) | > 100 µM (inactive) | > 100 µM (inactive) | > 100 µM | > 100 µM (inactive) | > 100 µM (inactive) | > 100 µM (inactive) | > 100 µM (inactive)
O=C(N/N=C/c1ccc2c(c1)OCO2)Nc1ccccc1Cl | 6.24 µM (inactive) | 1.85 µM (inactive) | 3.76 µM (inactive) | 3.69 µM (inactive) | 4.19 µM (inactive) | 0.918 µM (active) | 3.7 µM (inactive) | 0.161 µM (active) | 8 µM (inactive) | 0.171 µM (active) | 4.18 µM (inactive) | 0.65 µM (active) | 1.66 µM (inactive) | 2.15 µM (inactive) | 0.469 µM (active) | 0.418 µM | 3.33 µM (inactive) | 1.95 µM (inactive) | 1.35 µM (inactive) | 2.95 µM (inactive)
COC(=O)CNC(=O)CCC(C)[C@H]1CCC2C3C(C[C@H](OC(C)=O)[C@@]21C)[C@@]1(C)CCC2(C[C@H]1C[C@H]3OC(C)=O)OOC1(CCCCC1)OO2 (stereo not given in full) | 1.08 µM (active) | 1.69 µM (inactive) | 1.75 µM (inactive) | 2.04 µM (inactive) | 2.1 µM (inactive) | 1.95 µM (inactive) | 4.63 µM (inactive) | 1.74 µM (inactive) | 2.6 µM (inactive) | 2.07 µM (inactive) | 2.02 µM (inactive) | 1.76 µM (inactive) | 1.91 µM (inactive) | 11.2 µM (inactive) | 3.26 µM (inactive) | 2.7 µM | 1.72 µM (inactive) | 17.2 µM (inactive) | 2.63 µM (inactive) | 2.12 µM (inactive)
